We go through 9 molecules from ChEMBL document CHEMBL1133597, “Fluorosulfonyl-substituted xanthines as selective irreversible antagonists for the A(1)-adenosine receptor” (J Med Chem, 2000).

In general, IC50 refers to the concentration at which inhibition is half-maximal. For orientation: Kd means the concentration at which binding is half-saturated. Read a high Kd as lower affinity.

In assay [1] the target is T1, Adenosine receptor A1 (Homo sapiens) (UniProt P30542).
T1 sequence (whole entry): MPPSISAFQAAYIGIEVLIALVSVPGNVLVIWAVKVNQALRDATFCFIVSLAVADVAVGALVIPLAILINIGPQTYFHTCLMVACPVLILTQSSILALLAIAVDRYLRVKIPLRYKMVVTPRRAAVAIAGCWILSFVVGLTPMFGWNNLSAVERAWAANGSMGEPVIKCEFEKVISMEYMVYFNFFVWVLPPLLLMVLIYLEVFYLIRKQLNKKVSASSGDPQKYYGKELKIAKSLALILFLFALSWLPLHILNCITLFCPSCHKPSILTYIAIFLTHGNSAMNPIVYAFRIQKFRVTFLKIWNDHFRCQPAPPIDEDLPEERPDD
Briefly: Percent loss of [3H]-DPCPX binding to adenosine A1 receptor at 100 nM. To be noted: Cricetulus griseus.

Assay [2] addresses T1, Adenosine receptor A1 (Homo sapiens). In words: Percent loss of [3H]DPCPX binding to adenosine A1 receptor at 0.05 nM. To be noted: Cricetulus griseus.
Assay [3] shares this target. Briefly: Percent loss of [3H]DPCPX binding to adenosine A1 receptor at 0.1 nM. To be noted: Cricetulus griseus.
The target of the next assay is T2, Adenosine receptor A1 (Homo sapiens, UniProt P30542).
T2 sequence (P30542 whole entry): T1 sequence (whole entry)
In words: Inhibition of [3H]-DPCPX binding to adenosine A1 receptor (AR). More on the design: species or system Cricetulus griseus.

In assay [4] the target is T1, Adenosine receptor A1 (Homo sapiens). Briefly: Percent loss of [3H]DPCPX binding to adenosine A1 receptor at 5 nM. To be noted: Cricetulus griseus.
Assay [5] addresses T3, Adenosine receptor A2a (Rattus norvegicus, UniProt P30543).
Description: Inhibition of [3H]ZM-241385 binding to adenosine A2A receptor(AR).
Assay [6] addresses T1, Adenosine receptor A1 (Homo sapiens). Briefly: Percent loss of [3H]-DPCPX binding to adenosine A1 receptor at 200 nM. To be noted: Cricetulus griseus.
Assay [7] addresses T3, Adenosine receptor A2a. The source holds these as a separate data set.
Description: Dissociation constant of [3H]ZM-241385 binding to adenosine A2A receptor(AR)

T3 sequence (P30543 whole entry): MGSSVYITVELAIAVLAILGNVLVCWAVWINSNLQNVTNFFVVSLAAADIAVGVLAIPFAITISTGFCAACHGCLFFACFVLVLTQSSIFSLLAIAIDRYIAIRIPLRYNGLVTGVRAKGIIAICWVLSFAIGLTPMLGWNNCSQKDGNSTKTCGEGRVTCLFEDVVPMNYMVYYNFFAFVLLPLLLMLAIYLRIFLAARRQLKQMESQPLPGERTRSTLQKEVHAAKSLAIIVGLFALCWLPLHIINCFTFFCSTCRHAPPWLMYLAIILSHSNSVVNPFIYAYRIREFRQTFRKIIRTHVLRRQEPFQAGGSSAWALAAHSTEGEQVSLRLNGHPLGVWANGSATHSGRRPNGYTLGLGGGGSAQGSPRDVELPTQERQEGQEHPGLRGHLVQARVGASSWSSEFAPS

Turning to `CCCn1c(=O)c2nc(C3CCCCC3)[nH]c2n(CCCNC(=O)c2ccc(S(=O)(=O)F)cc2)c1=O`, the Loss in assay [1] turned out to be 82%; in assay [2] it was 16%; in assay [3], 43%; in assay [4], 64%. This molecule also had an IC50 at Adenosine receptor A1 of 24.9 nM.
Turning to `CCCn1c(=O)c2[nH]c(C3CCCCC3)nc2n(CCCc2ccc(S(=O)(=O)F)cc2)c1=O`, the IC50 at Adenosine receptor A1 was 112 nM; against Adenosine receptor A2a [5], greater than 10 nM.
Consider `CCCn1c(=O)c2nc(C3CCCCC3)[nH]c2n(CCCc2ccc(S(=O)(=O)F)cc2)c1=O`, for which the Loss in assay [6] was 11%.
As for `CCCn1c(=O)c2[nH]c(C3CCCCC3)nc2n(Cc2ccc(S(=O)(=O)F)cc2)c1=O`, the IC50 at Adenosine receptor A1 is 165 nM; against Adenosine receptor A2a [5], greater than 10 nM.
Turning to `CCCn1c(=O)c2nc(C3CCCCC3)[nH]c2n(CCCCCc2ccc(S(=O)(=O)F)cc2)c1=O`, the Loss in assay [6] was found to be 43%. For the same molecule, the half-inhibitory concentration (IC50) was 101 nM on Adenosine receptor A1 and greater than 10 nM against Adenosine receptor A2a [5].
In assay [4], `CCCn1c(=O)c2nc(C3CCCC3)[nH]c2n(CCCOC(=O)c2ccc(S(=O)(=O)F)cc2)c1=O` had a Loss of 67%.
For `CCCn1c(=O)c2nc(C3CCCC3)[nH]c2n(CCCNC(=O)c2ccc(S(=O)(=O)F)cc2)c1=O`, the equilibrium dissociation constant (Kd) at Adenosine receptor A2a [7] is 0.34 nM. Moreover, the Loss in assay [1] amounted to 83%; in assay [2], 33%; in assay [3], 64%; in assay [4], 74%. This molecule had an IC50 at Adenosine receptor A2a [5] of 2.8 nM.
In turn, `CCCn1c(=O)c2nc(C3CCCCC3)[nH]c2n(Cc2ccc(S(=O)(=O)F)cc2)c1=O` had a Loss in assay [6] of 0%.
Molecule `CCCn1c(=O)c2[nH]c(C3CCCC3)nc2n(CCCOC(=O)c2ccc(S(=O)(=O)F)cc2)c1=O` came in with a dissociation constant (Kd) at Adenosine receptor A2a [7] of 0.23 nM. Half-maximal inhibition on Adenosine receptor A2a [5] (IC50) was put at 1.2 nM.
